Assays:
Assay in all cases: Rescue concentration, modified checkerboard MIC adjuvant assay
Type in all cases: cell-based
[1] = system: Acinetobacter baumannii clinical isolate 9978; conditions: A. baumannii clinical isolate 9978
Protocol: (§1) Reference microorganisms as well as clinical strains used to evaluate the antimicrobial adjuvant properties of SP-6azaBIM 125 and SP-6azaBIM 136 are listed in Table 3. Clinical strains of bacteria were kindly provided by the Faculty of Medical Sciences, UWI, St. Augustine, Trinidad. All bacterial cultures were cryopreserved in 30% glycerol/Brain Heart Infusion (BHI) at −80° C. Cultures were revived on BHI agar (Oxoid Ltd, England) and maintained at 4° C. until needed.
(§2) Prior to each experiment, cultures were streaked onto clean BHI agar plates and incubated at 35° C. for 24 hours. Colonies of the respective cultures were selected and inoculated in phosphate buffer saline (pH 7.5) to a 0.5 McFarland turbidity standard (equivalent to 10^8 CFU mL^−1). For inhibitory studies the bacterial suspensions were diluted 1:100 in cation-adjusted Mueller Hinton Broth (ca-MHB) (Oxoid Ltd, England). Fastidious bacteria including Streptococcus pneumoniae, Haemophilus infuenzae and Clostridium difficile were maintained on BHI agar with 5% defibrinated sheep blood and diluted in ca-MHB with 5% defibrinated sheep blood.
(§3) Antibiotic powders used in this study were purchased from Sigma Aldrich Ltd. (WI, USA). Antibiotic stock solutions were made at 50 mg mL^−1 according to Andrews (2001) and working solutions were prepared 24 h before use and stored at 4° C.
(§4) HCl salts of the of the SP-azaBIM test compounds were prepared prior to testing and stored at 4° C. Working preparations of each compound were made to 1 mg/mL in sterile deionised water.
(§5) The antibiotic adjuvant activity of the SPazaBIMs were evaluated in combination with representative antibiotics (representing 13 antibiotic classes) against the 19 pathogens strains listed in Table 3. To assess the adjuvant properties of the SP-azaBIM molecules, a modified checkerboard minimum inhibitory concentration assay was used. A fixed concentration of the respective antibiotic (susceptible breakpoint concentration) was mixed with a twofold dilution series of the test SP-azaBIM (FIG. 1). This was to determine the concentration of SP-azaBIM needed potentiate the antibiotic at a clinically susceptible breakpoint concentration. Antibiotic susceptible breakpoint concentrations for the respective bacteria were determined using Clinical Laboratory Standards Institute (CLSI) criteria M100 ED31.
(§6) In this study, only those antibiotics to which the bacterial was classed as resistant were included in the adjuvant assays. In this assay we recorded the rescue concentration of the SP-BIM for a respective antibiotic. The rescue concentration was defined as the concentration of the adjuvant that reduces the minimum inhibitory concentration (MIC) of an antibiotic to the susceptibility breakpoint.
(§7) Immediately prior to testing, the respective antibiotic and SP-azaBIM was dissolved in sterile deionised water at 20× the required test concentration. Each microtiter well was then inoculated with 180 μl of bacterial inoculum of 10^6 CFU/ml in ca-MHB, and 10 μl each if the antibiotic and SP-azaBIM was added to the plates. These plates were then incubated at 35° C. for 24 h under aerobic conditions. A similar method was followed for the fastidious pathogens except that they were cultured in ca-MHB with 5% sheep blood and 5% CO2.
(§8) Bacterial growth was visually inspected after the incubation period and the rescue concentration of the test SP-azaBIM was determined as the lowest concentration of the compound needed to reduce bacterial growth by 99.99% at the susceptible breakpoint concentration of the antibiotic. For example, CLSI states that Pseudomonas aeruginosa is susceptible to the Imipenem if the MIC is ≤2 μg mL^−1. If the bacteria can tolerate this concentration in vitro, then the bacteria has an intermediate or absolute resistance toward that antibiotic. […]

[2] = system: Enterobacter cloacae ATCC BAA-1143; conditions: E. cloacae ATCC BAA-1143
Protocol: as §1, §2, §3, §4, §5, §6, §7, §8

[3] = system: Enterococcus faecalis ATCC 51299; conditions: E. faecalis ATCC 51299
Protocol: as §1, §2, §3, §4, §5, §6, §7, §8

[4] = system: Klebsiella pneumoniae ATCC 49472; conditions: K. pneumoniae ATCC 49472
Protocol: as §1, §2, §3, §4, §5, §6, §7, §8

[5] = system: Klebsiella pneumoniae ATCC BAA-2814; conditions: K. pneumoniae ATCC BAA-2814
Protocol: as §1, §2, §3, §4, §5, §6, §7, §8

[6] = system: Pseudomonas aeruginosa MDR 5805; conditions: P. aeruginosa MDR 5805
Protocol: as §1, §2, §3, §4, §5, §6, §7, §8

[7] = system: Staphylococcus aureus ATCC BAA-2312; conditions: S. aureus ATCC BAA-2312
Protocol: as §1, §2, §3, §4, §5, §6, §7, §8

[8] = system: Stenotrophomonas maltophilia MDR 7785; conditions: S. maltophilia MDR 7785
Protocol: as §1, §2, §3, §4, §5, §6, §7, §8

[9] = Amox at susceptible breakpoint 8 μg mL^−1
[10] = Cef at susceptible breakpoint 8 μg mL^−1
[11] = Col at susceptible breakpoint 2 μg mL^−1
[12] = Gen at susceptible breakpoint 4 μg mL^−1
[13] = Imi at susceptible breakpoint 2 μg mL^−1
[14] = Mero at susceptible breakpoint 2 μg mL^−1
[15] = Pol B at susceptible breakpoint 2 μg mL^−1
[16] = Amp at susceptible breakpoint 8 μg mL^−1
[17] = Azi at susceptible breakpoint 16 μg mL^−1
[18] = Ceph at susceptible breakpoint 8 μg mL^−1
[19] = Chl at susceptible breakpoint 8 μg mL^−1
[20] = Col at susceptible breakpoint 8 μg mL^−1
[21] = Dox at susceptible breakpoint 4 μg mL^−1
[22] = Imi at susceptible breakpoint 1 μg mL^−1
[23] = Tet at susceptible breakpoint 4 μg mL^−1
[24] = Tri at susceptible breakpoint 8 μg mL^−1

SMILES: Brc1ccc(C(c2c[nH]c3ncccc23)c2c[nH]c3ncccc23)cc1 [SP-7azaBIM 126, 3,3′-((4-bromophenyl)methylene)bis(1H-pyrrolo[2,3-b]pyridine)]
- Rescue concentration, Amox (8) [1, 9]: >128 µg/mL
- Rescue concentration, Cef (8) [1, 10]: >128 µg/mL
- Rescue concentration, Col (2) [1, 11]: >128 µg/mL
- Rescue concentration, Gen (4) [1, 12]: >128 µg/mL
- Rescue concentration, Imi (2) [1, 13]: >128 µg/mL
- Rescue concentration, Mero (2) [1, 14]: >128 µg/mL
- Rescue concentration, Pol B (2) [1, 15]: >128 µg/mL
- Rescue concentration, Amp (8) [2, 16]: 128 µg/mL
- Rescue concentration, Azi (16) [2, 17]: >128 µg/mL
- Rescue concentration, Ceph (8) [2, 18]: >128 µg/mL
- Rescue concentration, Chl (8) [2, 19]: >128 µg/mL
- Rescue concentration, Col (8) [2, 20]: >128 µg/mL
- Rescue concentration, Dox (4) [2, 21]: >128 µg/mL
- Rescue concentration, Gen (4) [2, 12]: >128 µg/mL
- Rescue concentration, Imi (1) [2, 22]: >128 µg/mL
- Rescue concentration, Tet (4) [2, 23]: >128 µg/mL
- Rescue concentration, Amp (8) [3, 16]: 32 µg/mL
- Rescue concentration, Chl (8) [3, 19]: >128 µg/mL
- Rescue concentration, Dox (4) [3, 21]: >128 µg/mL
- Rescue concentration, Ery (0.5) ([3]; Ery at susceptible breakpoint 0.5 μg mL^−1): >128 µg/mL
- Rescue concentration, Tri (8) [3, 24]: >128 µg/mL
- Rescue concentration, Van (4) ([3]; Van at susceptible breakpoint 4 μg mL^−1): 64 µg/mL
- Rescue concentration, Amox (8) [4, 9]: >128 µg/mL
- Rescue concentration, Amp (8) [4, 16]: >128 µg/mL
- Rescue concentration, Col (8) [4, 20]: >128 µg/mL
- Rescue concentration, Imi (1) [4, 22]: >128 µg/mL
- Rescue concentration, Mero (1) ([4]; Mero at susceptible breakpoint 1 μg mL^−1): >128 µg/mL
- Rescue concentration, Pol B (8) ([4]; Pol B at susceptible breakpoint 8 μg mL^−1): >128 µg/mL
- Rescue concentration, Amox (8) [5, 9]: >128 µg/mL
- Rescue concentration, Amp (8) [5, 16]: >128 µg/mL
- Rescue concentration, Aze (4) ([5]; Aze at susceptible breakpoint 4 μg mL^−1): >128 µg/mL
- Rescue concentration, Azi (16) [5, 17]: >128 µg/mL
- Rescue concentration, Cef (16) ([5]; Cef at susceptible breakpoint 16 μg mL^−1): >128 µg/mL
- Rescue concentration, Ceph (8) [5, 18]: >128 µg/mL
- Rescue concentration, Chl (8) [5, 19]: >128 µg/mL
- Rescue concentration, Col (8) [5, 20]: >128 µg/mL
- Rescue concentration, Dox (4) [5, 21]: >128 µg/mL
- Rescue concentration, Gen (4) [5, 12]: >128 µg/mL
- Rescue concentration, Imi (1) [5, 22]: >128 µg/mL
- Rescue concentration, Tet (4) [5, 23]: >128 µg/mL
- Rescue concentration, Amox (8) [6, 9]: >128 µg/mL
- Rescue concentration, Col (2) [6, 11]: >128 µg/mL
- Rescue concentration, Gen (4) [6, 12]: >128 µg/mL
- Rescue concentration, Imi (2) [6, 13]: >128 µg/mL
- Rescue concentration, Mero (2) [6, 14]: >128 µg/mL
- Rescue concentration, Pol B (2) [6, 15]: >128 µg/mL
- Rescue concentration, Azi (2) ([7]; Azi at susceptible breakpoint 2 μg mL^−1): >128 µg/mL
- Rescue concentration, Gen (4) [7, 12]: >128 µg/mL
- Rescue concentration, Pen (0.12) ([7]; Pen at susceptible breakpoint 0.12 μg mL^−1): >128 µg/mL
- Rescue concentration, Tri (8) [7, 24]: >128 µg/mL
- Rescue concentration, Van (2) ([7]; Van at susceptible breakpoint 2 μg mL^−1): >128 µg/mL
- Rescue concentration, Cef (8) [8, 10]: >128 µg/mL
- Rescue concentration, Ceph (8) [8, 18]: >128 µg/mL
- Rescue concentration, Chl (8) [8, 19]: >128 µg/mL
- Rescue concentration, Cip (2) ([8]; Cip at susceptible breakpoint 2 μg mL^−1): >128 µg/mL
- Rescue concentration, Gen (4) [8, 12]: >128 µg/mL
- Rescue concentration, Imi (2) [8, 13]: 16 µg/mL
- Rescue concentration, Mero (2) [8, 14]: 32 µg/mL
- Rescue concentration, Tri (2) ([8]; Tri at susceptible breakpoint 2 μg mL^−1): >128 µg/mL

From patent US20230382926A1, “COMPOUNDS AND USES THEREOF” (The University of The West Indies, priority 2022, published 2023)
